From the supplement of paper PMC10307832

Legend:
Experiment in all cases: relative viability (nuclei count vs DMSO), 5 days (fraction); higher = more cells survive
TPCA-1 + Decitabine = compound: C1=CC(=CC=C1C2=CC(=C(S2)NC(=O)N)C(=O)N)F [TPCA-1] + Nc1ncn([C@H]2C[C@H](O)[C@@H](CO)O2)c(=O)n1 [Decitabine] (partner 2 µM)
Summary of the method: (§1)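 Cells from lung cancer lines were seeded into 1536-well plates and, one day later, dosed by pin tool. Treatments were either a single drug or a fixed dose of an anchor drug with five library-drug doses (not always all listed) in √10 steps. After 5 days, nuclei were stained in a one-step fixation (final 0.05% Triton X-100, 1% formaldehyde, 1 ug/ml Hoechst) and counted on 4× images, and relative viability is the treated-to-vehicle nuclei ratio, as the median of duplicate plates.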

[1] = compound: C1/C(=C\C2=CC=CS2)/C(=O)/C(=C/C3=CC=CS3)/C1 + COc1cc2c(Oc3ccc(NC(=O)C4(C(=O)Nc5ccc(F)cc5)CC4)cc3F)ccnc2cc1OCCCN1CCOCC1 [Foretinib] (partner 0.25 µM)
Summary of the method: as §1

TPCA-1 + Tozasertib = compound: C1=CC(=CC=C1C2=CC(=C(S2)NC(=O)N)C(=O)N)F [TPCA-1] + Cc1cc(Nc2cc(N3CCN(C)CC3)nc(Sc3ccc(NC(=O)C4CC4)cc3)n2)n[nH]1 [Tozasertib] (partner 0.1 µM)
Summary of the method: as §1

[2] = compound: C1/C(=C\C2=CC=CS2)/C(=O)/C(=C/C3=CC=CS3)/C1 + CS(=O)(=O)CCNCc1ccc(-c2ccc3ncnc(Nc4ccc(OCc5cccc(F)c5)c(Cl)c4)c3c2)o1 [Lapatinib] (partner 2 µM)
Summary of the method: as §1

Cell Line | relative viability (TPCA-1 + Decitabine; first compound 0.04 µM) | relative viability (TPCA-1 + Decitabine; first compound 0.1265 µM) | relative viability (TPCA-1 + Decitabine; first compound 0.4 µM) | relative viability (TPCA-1 + Decitabine; first compound 1.265 µM) | relative viability (TPCA-1 + Decitabine; first compound 4 µM) | relative viability ([1]; first compound 0.2 µM) | relative viability ([1]; first compound 0.6325 µM) | relative viability ([1]; first compound 2 µM) | relative viability ([1]; first compound 6.325 µM) | relative viability ([1]; first compound 20 µM) | relative viability (TPCA-1 + Tozasertib; first compound 0.04 µM) | relative viability (TPCA-1 + Tozasertib; first compound 0.1265 µM) | relative viability (TPCA-1 + Tozasertib; first compound 0.4 µM) | relative viability (TPCA-1 + Tozasertib; first compound 1.265 µM) | relative viability (TPCA-1 + Tozasertib; first compound 4 µM) | relative viability ([2]; first compound 0.2 µM) | relative viability ([2]; first compound 0.6325 µM) | relative viability ([2]; first compound 2 µM) | relative viability ([2]; first compound 6.325 µM) | relative viability ([2]; first compound 20 µM)
201T | 0.901 | 0.868 | 0.889 | 0.869 | 0.941 | 1 | 1.09 | 1.25 | 0.752 | 1.02 | 0.958 | 0.924 | 1.05 | 0.976 | 0.636 | 1.01 | 1.01 | 1.14 | 0.979 | 1.05
A549 | 0.219 | 0.423 | 0.284 | 0.182 | 0.102 | 0.888 | 1.01 | 0.968 | – | 0.937 | – | – | – | – | – | 1.04 | 0.957 | 1.05 | 0.932 | 0.902
A-427 | 0.62 | 0.535 | 0.591 | 0.564 | 0.504 | 1.04 | 1.01 | 1.06 | 0.992 | 1.16 | 0.231 | 0.211 | 0.192 | 0.161 | 0.147 | 1.09 | 1.01 | 1.01 | 1.02 | 0.982
ABC-1 | 1.49 | 1.07 | 1.16 | 1.09 | 1.27 | 0.984 | 0.991 | 1.1 | 0.617 | 1.2 | 0.153 | 0.199 | 0.137 | 0.163 | 0.142 | 1.28 | 1.09 | 1.03 | 0.971 | 1.27
CAL-12T | – | – | – | – | – | 1.34 | 1.02 | 1.09 | 0.981 | 1.03 | 0.327 | 0.299 | 0.257 | 0.236 | 0.206 | 0.774 | 0.827 | 0.74 | 0.604 | 0.606
Calu-6 | – | – | – | – | – | 0.833 | 0.945 | 0.895 | 0.759 | 0.82 | – | – | – | – | – | 1.02 | 1.03 | 0.981 | 0.991 | 0.986
ChaGo-K-1 | 0.49 | 0.453 | 0.565 | 0.499 | 0.321 | 0.912 | 1.01 | 0.857 | 0.797 | 0.41 | 0.232 | 0.237 | 0.251 | 0.226 | 0.207 | – | – | – | – | –
EBC-1 | – | – | – | – | – | 0.112 | 0.091 | 0.0946 | 0.111 | 0.0934 | – | – | – | – | – | 0.19 | 0.197 | 0.237 | 0.205 | 0.221
HCC-44 | 1.1 | 0.841 | 0.908 | 0.879 | 0.887 | – | – | – | – | – | 1.07 | 0.937 | 0.889 | – | 0.294 | 0.979 | 1.02 | 1 | 0.728 | 0.975
IA-LM | – | – | – | – | – | 1.17 | 1.24 | 1.21 | 1.08 | 1.06 | – | – | – | – | – | 1.08 | 0.749 | 0.779 | 0.757 | 0.67
LCLC-103H | 0.716 | 0.719 | 0.772 | 0.788 | 0.811 | 0.804 | 0.8 | 0.787 | 0.668 | 0.732 | 0.488 | 0.405 | 0.515 | 0.513 | 0.321 | – | – | – | – | –
NCI-H441 | 0.252 | 0.247 | 0.229 | 0.48 | 0.239 | 1.11 | 0.913 | 1.15 | 0.867 | 0.927 | 0.946 | 0.632 | 0.506 | 0.379 | 0.28 | – | – | – | – | –
NCI-H522 | 0.658 | 0.674 | 0.662 | 0.646 | 0.58 | – | – | – | – | – | 0.562 | 0.589 | 0.586 | 0.578 | 0.553 | – | – | – | – | –
NCI-H1299 | – | – | – | – | – | 1.17 | 1.12 | 1.1 | 1.03 | 1.11 | – | – | – | – | – | 1.04 | 0.951 | 0.909 | 0.939 | 0.995
NCI-H1563 | – | – | – | – | – | 0.952 | 1.1 | 0.968 | 0.895 | 0.93 | – | – | – | – | – | 0.996 | 0.903 | 0.97 | 0.953 | 0.955
NCI-H1623 | – | – | – | – | – | 0.863 | 0.907 | 0.871 | 0.786 | 0.821 | 0.408 | 0.402 | 0.454 | 0.437 | 0.37 | – | – | – | – | –
NCI-H1648 | 0.605 | 0.578 | 0.495 | 0.519 | 0.569 | – | – | – | – | – | 0.548 | 0.355 | 0.486 | 0.573 | 0.379 | – | – | – | – | –
NCI-H1703 | – | – | – | – | – | 0.381 | 0.451 | 0.33 | 0.257 | 0.337 | – | – | – | – | – | 1.21 | 1.21 | 1.18 | 1.1 | 1.11
NCI-H1792 | 0.674 | 0.465 | 0.551 | 0.474 | 0.307 | – | – | – | – | – | – | – | – | – | – | 0.819 | 0.915 | 1.04 | – | 0.899
NCI-H2228 | – | – | – | – | – | 0.816 | 0.992 | 0.869 | 0.913 | 0.715 | 0.299 | 0.178 | 0.285 | 0.232 | 0.108 | 1.22 | 1.12 | 1.14 | 0.939 | 1
NCI-H2342 | 0.71 | 0.653 | 0.766 | 0.712 | 0.883 | 1.08 | 1.28 | 1.17 | 0.989 | 1.1 | 0.437 | 0.438 | 0.499 | 0.617 | 0.391 | – | – | – | – | –
SW 900 | – | – | 0.407 | 0.421 | 0.391 | 0.823 | 0.817 | 0.804 | 0.9 | 1.16 | 0.612 | 0.556 | 0.56 | 0.485 | 0.245 | – | – | – | – | –
